In US20090253709A1 (NATIONAL DEFENSE MEDICAL CENTER, priority 2008, published 2009) one finds activity, melting point and viability data, which are given here for 4 compounds.

Where two headings read alike, the source gives them in different places.

One data set deals with hTERT expression. Briefly: SEAP assay in hTERT-BJ1-PTERT(3.4)-SEAP cells. The data set is classed as cell-based. Conditions: Homo sapiens, read-out: SEAP (Inhibition μM ± SD).
The nature of the next data set: MTT assay in BJ1 cells. It counts as cell-based. Conditions: human, hTERT-BJ1-PTERT(3.4)-SEAP cells, BJ1, read-out: MTT (Inhibition μM ± SD); for viability at 48 h, 1 µM: compound concentration 1 μM; for viability at 48 h, 10 µM: compound concentration 10 μM; for viability at 48 h, 100 µM: compound concentration 100 μM. A digest of the protocol: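 After 48 h drug treatment, cells in DMEM/Medium 199 (4:1) with 10% FBS were given MTT (5 mg/ml stock) in serum-free medium for 4 h at 37 °C, lysed overnight in 20% SDS/50% DMF, and absorbance read at 570 nm.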

A further data set is described as follows: MTT assay in H1299 cells. It counts as cell-based. The settings on record: human, H1299 cells (H1299/PhTERT-driven SEAP reporter system), H1299, read-out: MTT (Inhibition μM ± SD); for viability at 24 h, 1 µM: compound concentration 1 μM; for viability at 24 h, 10 µM: compound concentration 10 μM; for viability at 24 h, 100 µM: compound concentration 100 μM. A digest of the protocol: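 H1299 cells, 2×10^3 per well, treated with drug 48 h. MTT (5 mg/ml stock) added for 4 h at 37° C, then SDS/DMF lysis overnight; absorbance at 570 nm gives viability, used alongside SEAP reporter readout to correct for cell number.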
(Tetrazolium assays rely on reduction of a dye to a coloured formazan, in cell work by metabolically active cells.)

[1] abbreviates: BJ1, compound concentration 10 μM.
Setting [2] is: BJ1, compound concentration 100 μM.
Where [3] appears, read: BJ1, compound concentration 1 μM.

In general, melting point refers to the temperature of the solid-liquid transition. `CN1CCN(CCC(=O)Nc2ccc3c(c2)C(=O)c2cc(NC(=O)CCN4CCN(C)CC4)ccc2C3=O)CC1` [Compound 23, 2,7-Bis[3-(N-methylpiperazino)propionamido]anthraquinone]: the melting point worked out at 284 °C. Moreover, the activity at 10 µM with hTERT expression (setting [1]) is 138 ± 115%. Further, the activity at 100 µM with hTERT expression (setting [2]) turned out to be 232 ± 66%. Further, in the data set “MTT assay in BJ1 cells”, the viability at 48 h, 1 µM was found to be 95 ± 2%; the viability at 48 h, 10 µM is 80 ± 2%; the viability at 48 h, 100 µM is 61 ± 1%. In the data set “MTT assay in H1299 cells”, the viability at 24 h, 1 µM came to 95 ± 18%; the viability at 24 h, 10 µM is 80 ± 15%; the viability at 24 h, 100 µM was 39 ± 6%.
The compound `CCNCCC(=O)Nc1ccc2c(c1)C(=O)c1cc(NC(=O)CCNCC)ccc1C2=O` [Compound 22, 2,7-Bis[3-(ethylamino)propionamido]anthraquinone] had a melting point of 181 °C. Further, in the data set on hTERT expression, the activity at 1 µM is 211 ± 38%, the activity at 10 µM amounted to 217 ± 133% and the activity at 100 µM was 97 ± 87%. Further, in “MTT assay in BJ1 cells”, the viability at 48 h, 1 µM was 82 ± 2%; the viability at 48 h, 10 µM came to 73 ± 3%; the viability at 48 h, 100 µM was 42 ± 1%. In the data set “MTT assay in H1299 cells”, the viability at 24 h, 1 µM was determined as 86 ± 10%; the viability at 24 h, 10 µM was determined as 59 ± 3%; the viability at 24 h, 100 µM came out at 34 ± 7%.
Regarding `O=C(Cc1ccccc1)Nc1ccc2c(c1)C(=O)c1cc(NC(=O)Cc3ccccc3)ccc1C2=O` [Compound 30, 2,7-Bis(phenylacetamido)anthraquinone], the melting point amounted to 224 °C. Also, the activity at 1 µM in the data set with hTERT expression (setting [3]) is 85 ± 8%. For the same compound, the activity at 10 µM with hTERT expression (setting [1]) is 79 ± 6%. Further, the activity at 100 µM in the data set on hTERT expression (setting [2]) was 40 ± 15%. For the same compound, in “MTT assay in BJ1 cells”, the viability at 48 h, 1 µM was found to be 93 ± 2%; the viability at 48 h, 10 µM amounted to 80 ± 3%; the viability at 48 h, 100 µM came out at 86 ± 4%. Besides, in “MTT assay in H1299 cells”, the viability at 24 h, 1 µM was determined as 106 ± 12%; the viability at 24 h, 10 µM is 96 ± 17%; the viability at 24 h, 100 µM was 75 ± 22%.
As to `CCN(CC)CC(=O)Nc1ccc2c(c1)C(=O)c1cc(NC(=O)CN(CC)CC)ccc1C2=O` [Compound 4, 2,7-Bis[2-(diethylamino)acetamido]anthraquinone], the melting point is 241 °C. The activity at 1 µM in the data set with hTERT expression (setting [3]) came out at 26 ± 4%. For the same compound, in the data set with hTERT expression (setting [1]), the activity at 10 µM was 131 ± 57%. For the same compound, the activity at 100 µM with hTERT expression (setting [2]) is 116 ± 34%. In addition, in “MTT assay in BJ1 cells”, the viability at 48 h, 1 µM is 116 ± 4%; the viability at 48 h, 10 µM was found to be 67 ± 2%; the viability at 48 h, 100 µM was 50 ± 1%. Moreover, in “MTT assay in H1299 cells”, the viability at 24 h, 1 µM was found to be 101 ± 8%; the viability at 24 h, 10 µM turned out to be 47 ± 7%; the viability at 24 h, 100 µM stood at 25 ± 3%.
